BindingDB's records for patent US9926282 (Bristol-Myers Squibb, 2018)

Target: Rho-associated protein kinase 1 (Homo sapiens, UniProt Q13464)
Assay: In Vitro Assay
Protocol: Compounds were dissolved in DMSO so that the final concentration of DMSO was <2%, and the reaction was initiated with Rho kinase variants. After incubation, the reaction was terminated by the addition of EDTA and the phosphorylated and non-phosphorylated peptides separated using a LABCHIP 3000 Reader (Caliper Life Sciences). […] Compounds were tested in dose-response format, and the inhibition of kinase activity was calculated at each concentration of compound.

Chain of Rho-associated protein kinase 1 (Q13464 whole entry): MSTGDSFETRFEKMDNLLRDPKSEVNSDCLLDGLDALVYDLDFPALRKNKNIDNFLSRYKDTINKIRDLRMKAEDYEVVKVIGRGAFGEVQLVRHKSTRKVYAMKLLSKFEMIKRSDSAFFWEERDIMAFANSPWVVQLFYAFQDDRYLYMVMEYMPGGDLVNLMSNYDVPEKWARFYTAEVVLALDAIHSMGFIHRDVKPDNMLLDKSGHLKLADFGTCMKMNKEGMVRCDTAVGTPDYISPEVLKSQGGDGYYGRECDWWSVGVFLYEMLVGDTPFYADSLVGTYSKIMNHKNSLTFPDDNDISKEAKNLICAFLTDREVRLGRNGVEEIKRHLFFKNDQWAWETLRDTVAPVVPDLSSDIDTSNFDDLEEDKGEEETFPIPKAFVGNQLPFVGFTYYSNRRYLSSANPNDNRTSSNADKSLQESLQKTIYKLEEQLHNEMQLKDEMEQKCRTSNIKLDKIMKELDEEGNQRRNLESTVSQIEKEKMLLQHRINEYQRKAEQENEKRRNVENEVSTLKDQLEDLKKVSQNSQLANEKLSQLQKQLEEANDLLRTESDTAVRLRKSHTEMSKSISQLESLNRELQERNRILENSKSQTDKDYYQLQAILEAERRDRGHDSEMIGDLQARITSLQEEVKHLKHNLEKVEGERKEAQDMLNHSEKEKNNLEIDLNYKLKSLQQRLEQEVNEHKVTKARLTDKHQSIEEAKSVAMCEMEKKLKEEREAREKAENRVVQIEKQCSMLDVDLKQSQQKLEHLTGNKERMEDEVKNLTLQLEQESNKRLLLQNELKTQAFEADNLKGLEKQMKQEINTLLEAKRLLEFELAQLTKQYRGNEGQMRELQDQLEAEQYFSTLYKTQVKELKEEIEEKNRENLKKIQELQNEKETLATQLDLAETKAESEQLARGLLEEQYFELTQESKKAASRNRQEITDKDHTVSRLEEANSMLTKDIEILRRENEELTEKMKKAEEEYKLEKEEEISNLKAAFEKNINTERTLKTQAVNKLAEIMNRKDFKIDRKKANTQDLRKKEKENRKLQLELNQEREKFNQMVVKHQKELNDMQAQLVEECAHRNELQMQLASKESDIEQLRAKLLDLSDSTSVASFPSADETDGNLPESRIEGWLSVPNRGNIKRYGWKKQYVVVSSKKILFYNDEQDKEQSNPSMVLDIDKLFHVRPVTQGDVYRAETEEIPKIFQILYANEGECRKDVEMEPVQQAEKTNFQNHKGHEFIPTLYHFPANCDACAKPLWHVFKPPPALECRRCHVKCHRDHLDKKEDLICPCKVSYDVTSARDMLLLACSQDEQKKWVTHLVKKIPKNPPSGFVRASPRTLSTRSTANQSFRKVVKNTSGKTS

| Structure (SMILES) | IC50 [nM] |
| --- | --- |
| O=C(Nc1ccc(-c2n[nH]c(=O)c3ccccc23)cc1)c1nn(CC2CCNCC2)c2ccccc12 [US9926282, Example 342] | < 100 |
| CCCn1cc(C(=O)Nc2ccc(-c3n[nH]c(=O)c4ccccc34)cc2)cn1 [US9926282, Example 382] | < 100 |
| O=C(Nc1ccc(-c2n[nH]c(=O)c3ccccc23)cc1)c1cnn(C2CCCCC2)c1 [US9926282, Example 373] | < 100 |
| O=C(Nc1ccc(-c2n[nH]c(=O)c3ccccc23)cc1)c1cnn(C2CCCC2)c1 [US9926282, Example 374] | < 100 |
| O=C(Nc1ccc(-c2n[nH]c(=O)c3ccccc23)cc1)c1cc2ncccn2n1 [US9926282, Example 102] | < 100 |
| O=C(Nc1ccc(-c2n[nH]c(=O)c3ccccc23)cc1)c1cnn(CC(O)C(F)(F)F)c1 (centres undefined) [US9926282, Example 378] | < 100 |
| CCc1c(C(=O)Nc2ccc(-c3n[nH]c(=O)c4ccccc34)cc2)nnn1-c1cccc(Cl)c1 [US9926282, Example 225] | < 100 |
| O=C(Nc1ccc(-c2n[nH]c(=O)c3ccccc23)c(Cl)c1)c1nn(CC2CNC2)c2ccccc12 [US9926282, Example 327] | < 100 |
| O=C(Nc1ccc(-c2n[nH]c(=O)c3ccccc23)cc1)c1c[nH]c2ncc(F)cc12 [US9926282, Example 120] | < 100 |
